Experimental data as given in US7572770B2, “Use of an interleukin 1 receptor antagonist and/or pyrrolidinedithiocarbamate for the treatment or prophylaxis of type 2 diabetes” (University of Zurich, priority 2002, dated 2009).

Experiments:
human islets = assay: Insulin release and content of human islets; type: cell-based
Protocol: Islet isolation and culture. Islets were isolated from pancreases of eleven organ donors at the Department of Surgery, University of Geneva Medical Center, as described (32-34). The islet purity was >95%, as judged by dithizone staining (if this degree of purity was not primarily achieved by routine isolation, islets were handpicked). […] For long-term in vitro studies, the islets were cultured on extracellular matrix-coated plates derived from bovine corneal endothelial cells (Novamed Ltd., Jerusalem, Israel), allowing the cells to attach to the dishes and spread, preserving their functional integrity (7;35). Islets were cultured in CMRL 1066 medium containing 100 U/ml penicillin, 100 μg/ml streptomycin and 10% fetal calf serum (Gibco, Gaithersburg, Md.), hereinafter referred to as culture medium. Two days after plating, when most islets were attached and began to flatten, the medium was changed to culture medium containing 5.5, 11.1 or 33.3 mM glucose. In some experiments, islets were additionally cultured with 2 ng/ml recombinant human IL-1β, 1000 U/ml recombinant human IFNγ (ReproTech EC Ltd, London, UK), 500 ng/ml IL-1β receptor antagonist (IL-1Ra) (R&D Systems Inc., Minneapolis, Minn.), 1 ng/ml membrane bound Fas-ligand (FasL) (36) (upstate biotechnology, Lake Placid, N.Y.) or with 100 μM pyrrolidinedithiocarbamate (PDTC; Sigma; 2 h per 2 d of culture).
Insulin release and content. To determine acute insulin release in response to glucose stimulation, islets were washed in RPMI 1640 medium with 10% FCS and containing 3.3 mM glucose and pre-incubated for 1 h in the same medium. The medium was then discarded and replaced with fresh medium containing 3.3 mM glucose for 1 h for basal secretion, followed by an additional 1 h incubation in medium containing 16.7 mM glucose. Incubates were collected and frozen for insulin assays. […] Insulin was determined by a human insulin RIA kit (CIS bio international, Gif-Sur-Yvette, France).

IL-1Ra = IL-1Ra expression and release in human islets; type: cell-based; conditions: for IL-1Ra released into the culture medium and IL-1Ra mRNA: 10 to 500 nM leptin
Protocol: Islet isolation and cell culture. Islets were isolated from pancreases of ten organ donors at the Department of Surgery, University of Geneva Medical Center, as described (32-34). The islet purity was >95%, as judged by dithizone staining (if this degree of purity was not primarily achieved by routine isolation, islets were handpicked). […] For long-term in vitro studies, the islets were cultured on extracellular matrix-coated plates derived from bovine corneal endothelial cells (Novamed Ltd., Jerusalem, Israel), allowing the cells to attach to the dishes and spread, preserving their functional integrity (7;35). Islets were cultured in CMRL 1066 medium containing 100 U/ml penicillin, 100 μg/ml streptomycin and 10% fetal calf serum (Invitrogen Corporation, Paisley, U.K.), hereafter referred to as culture medium. Two days after plating, when most islets were attached and began to flatten, the medium was changed to culture medium containing 5.5, 11.1 or 33.3 mM glucose. In some experiments, islets were additionally cultured with 5, 10 or 500 nM rh leptin (PeproTech, London, UK), 500 ng/ml rh IL-1Ra (R&D Systems Inc., Minneapolis, Minn.) or 50 nM small interfering RNA (siRNA) as described below.
RNA interference. RNAs of 21 nucleotides, designed to target human IL-1Ra (5′AUCUGCAGAGGCCUCCGCAtt3′/5′UGCGGAGGCCUCUGCAGAUtt3′) and scrambled siRNA were synthesized by Ambion (Austin, Tex.). siRNAs were transfected using SiPortAmine™ according to the manufacturer's instructions (Ambion).
Detection of IL-1Ra and IL-1β expressing cells. Pancreases from routine necropsies were immersion-fixed in formalin, followed by paraffin embedding. In parallel, isolated human were cultured in a suspension for 48 hours and exposed to 10 nM leptin or 33.3 mM glucose, islets were fixed in Bouin solution for 15 min, resuspended in 40 μl of 2% melted agarose in PBS (40° C.), followed by rapid centrifugation and paraffin embedding. Sections were deparaffinized, rehydrated and then incubated in methanol for 4 min. Human islets cultured on extracellular matrix for 4 days were washed in PBS, fixed in 4% paraformaldehyde (30 min, room temperature) followed by permeabilization with 0.5% triton X-100 (4 min, room temperature). Pancreas and islet sections and cultured cells were double-labeled for IL-1Ra or IL-1β and insulin, CD68, glucagon or somatostatin by 1 h of exposure to 10% bovine serum albumin followed by incubation (1 h, 37° C.) with biotinylated goat anti-IL-1Ra or mouse anti-IL-1β antibodies (R&D Systems Inc.). Detection was performed using cy3-(Jackson, ImMunoResearch Laboratories, West Grove, Pa.) or cy2-(Transduction Lab., Lexington, Ky.) conjugated streptavidin. […]

Substance	acute glucose-stimulated insulin release, co-incubation (human islets; 33.3 mM glucose or IL-1β for 4 days plus IL-1Ra or PDTC)	insulin content of islets (human islets; high glucose with IL-1Ra, 4 days)	IL-1Ra expression in β-cells (double immunostaining) (IL-1Ra; 10 nM leptin, 48 hours)	IL-1Ra released into the culture medium and IL-1Ra mRNA (IL-1Ra; 15 hours)	IL-1Ra released into the culture medium and IL-1Ra mRNA (IL-1Ra; 48 hours)	IL-1Ra protein (Western blot) (IL-1Ra; leptin, 15-hour exposure)
Interleukin 1 receptor antagonist [IL-1Ra]	partially restored such glucose stimulation	remained unaffected	–	–	–	–
leptin: rh leptin (PeproTech); protein encoded by the ob gene	–	–	decreased IL-1Ra expression in most β-cells	increased	marked decrease	decreased IL-1Ra already after a 15-hour exposure
